In this experiment the test system is autologous dog kidney transplant model for IRI. The experiment is described as follows: Autologous dog kidney transplant model for ischaemia reperfusion injury (IRI). In kind it is in vivo. As to the method: An autologous dog kidney transplant model for IRI was developed (FIG. 1). The right kidney was removed from a dog at day 0 of the study and was exposed to cold ischemia for 32 hours. After exposure to cold ischemia, the right kidney developed IRI. Subsequently, in an autotransplant, the right kidney was implanted, and the left kidney was removed. Defibrotide was administered to the dog prior to transplant and after transplant four times per day for 7 days at doses of 3 mg/kg, 10 mg/kg, or 25 mg/kg. Clinical endpoints were evaluated, including bleeding at the anastomosis site, coagulation, renal function labs, serum creatinine, blood urea nitrogen (BUN), histopathology at sacrifice, and the measurement of biomarkers, including endothelin-1, Kim-1, ICAM-1, E-selectin, t-PA, PAI-1, Thrombomodulin, IL-6, TNF-α, MCP-1, and A2M.
The gross dog kidney morphology was evaluated at the termination of the study.
The creatinine level, a marker of renal function, was measured pre-transplant and post-transplant after treatment with saline control, 3 mg/kg, 10 mg/kg, or 25 mg/kg of defibrotide. […] Each curve represents a different dog.

On to defibrotide, for which the “severity of hemorrhage after IRI (FIG. 2, dose response)” value (after higher doses of defibrotide, saline control) is recorded as “the severity of hemorrhage lessened”. Where the note is “after six days of defibrotide, 3, 10 or 25 mg/kg, post-transplant”, the “creatinine levels (marker of renal function, FIG. 3)” value was “decreased to levels just above normal”. The “hemorrhage, gross dog kidney morphology at the termination of the study” value (higher doses of defibrotide (3, 10 or 25 mg/kg, four times per day for 7 days), kidney exposed to cold ischemia for 32 hours) is reported as “Minimal hemorrhage”. Moreover, the “renal function post IRI” value (higher doses of defibrotide, after transplant) is on record as “improved renal function”.
